The values below come from ChEMBL document CHEMBL1201862, “PubChem BioAssay data set” (2004).

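Briefly, cells in 96-well plates were exposed to five compound concentrations for 48 h, and endpoints were estimated by linear interpolation. GI50 = concentration required for 50% inhibition of growth.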 Calls of active or inactive are those of the source. No stated cut-off is given here; in the data, active = GI50 up to about 1.1 µM and inactive = higher.

Test systems include COLO 205; RXF 393; SK-OV-3; HT-29; A498; 786-0; SF-268; TK-10; T47D; SR; HCT-116; OVCAR-4; UACC-62; SK-MEL-2; HCT-15; BT-549; MDA-MB-435; MDA-MB-231; SK-MEL-28; SF-295.
What all share (assay): DTP human tumour cell line panel, 48 h

`Cc1cccc(-c2cc(O)c3c(C)cc(C)nc3n2)c1`: the GI50 (usually the concentration that inhibits growth by half) in the test on COLO 205 was 1.04 µM (active); in the test with RXF 393, 3.41 µM (inactive); in the test on SK-OV-3, 2.24 µM (inactive); in the test with HT-29, 2.12 µM (inactive); with A498, 5.71 µM (inactive); in the test with 786-0, 4.57 µM (inactive). Besides, the GI50 with SF-268 was 6.21 µM (inactive); in the test with TK-10, 16.1 µM (inactive); in the test on T47D, 3.96 µM (inactive); in the test with SR, 0.38 µM (active); in the test on HCT-116 it was 2.04 µM (inactive); in the test on OVCAR-4, 4.38 µM (inactive). The GI50 in the test on UACC-62 was 4.14 µM (inactive); with SK-MEL-2, 2.73 µM (inactive); in the test with HCT-15 it was 1.32 µM; in the test on BT-549 it was 3.73 µM (inactive); in the test with MDA-MB-435, 0.321 µM (active); with MDA-MB-231, 5.7 µM (inactive). Besides, the values for the GI50 with SK-MEL-28 and in the test on SF-295 were 13.1 µM (inactive) and 2.72 µM (inactive), respectively.

`Nc1nc(-c2ccccc2)c(-c2ccccc2)c(-c2nc(N)nc(-c3ccccc3)c2-c2ccccc2)n1`: the GI50 in the test on COLO 205 is > 100 µM (inactive); in the test with RXF 393, 94 µM (inactive); in the test on SK-OV-3, > 100 µM (inactive); with HT-29, 62.1 µM (inactive); in the test on A498, 75.5 µM (inactive); in the test on 786-0 it was > 100 µM (inactive). Besides, the GI50 in the test on SF-268 is > 100 µM (inactive); with TK-10, > 100 µM (inactive); in the test on T47D, 49.7 µM (inactive); with SR it was > 100 µM (inactive); in the test with HCT-116 it was > 100 µM (inactive); with OVCAR-4, 91 µM (inactive). The GI50 with UACC-62 is 85.3 µM (inactive); in the test with SK-MEL-2, > 100 µM (inactive); with HCT-15, > 100 µM; with BT-549 it was > 100 µM (inactive); in the test with MDA-MB-435, > 100 µM (inactive); in the test on MDA-MB-231 it was > 100 µM (inactive). In addition, the GI50 is > 100 µM (inactive) in the test on SK-MEL-28 and 78.9 µM (inactive) in the test with SF-295.

Consider `CC(=O)C(C)CCOC1(C)OCCC1C` (stereo not given), for which the GI50 in the test on COLO 205 was 65 µM (inactive); with RXF 393, > 100 µM (inactive); with SK-OV-3 it was > 100 µM (inactive); with HT-29 it was > 100 µM (inactive); in the test on A498, > 100 µM (inactive); with 786-0, > 100 µM (inactive). For the same molecule, the GI50 in the test with SF-268, in the test on TK-10, in the test with T47D, in the test with SR, in the test with HCT-116 and in the test with OVCAR-4 was > 100 µM (inactive) throughout. The GI50 with UACC-62 was > 100 µM (inactive); with SK-MEL-2, > 100 µM (inactive); with HCT-15, > 100 µM; with BT-549 it was > 100 µM (inactive); with MDA-MB-435, > 100 µM (inactive); in the test with MDA-MB-231 it was > 100 µM (inactive). The GI50 in the test on SK-MEL-28 and in the test with SF-295 was > 100 µM (inactive) in each case.

For the molecule `O=C1NN=C(c2ccc(Cl)cc2)CC1C1C(=O)N(c2ccccc2)N=C1c1ccccc1` (stereo not given), the GI50 is 41.8 µM (inactive) with COLO 205; 22.5 µM (inactive) with RXF 393; 39.5 µM (inactive) in the test with SK-OV-3; 32.9 µM (inactive) in the test with HT-29; 26.2 µM (inactive) in the test on A498; 24.7 µM (inactive) in the test with 786-0. Further, the GI50 in the test on SF-268 was 48.2 µM (inactive); in the test on TK-10, 35.6 µM (inactive); with T47D, 22.1 µM (inactive); with SR, 93.1 µM (inactive); in the test on HCT-116 it was 19.6 µM (inactive); in the test with OVCAR-4 it was 26.4 µM (inactive). For the same molecule, the GI50 was 26.8 µM (inactive) with UACC-62; 25.1 µM (inactive) in the test on SK-MEL-2; 31.3 µM with HCT-15; 20 µM (inactive) in the test with BT-549; 31.6 µM (inactive) in the test with MDA-MB-435; 35.9 µM (inactive) with MDA-MB-231. For the same molecule, the figures for the GI50 in the test with SK-MEL-28 and in the test with SF-295 were 36.7 µM (inactive) and 29.9 µM (inactive), respectively.

For the molecule `COc1ccc(-c2c(CN3CCOCC3)sc3nc4ccccc4n23)cc1`, the GI50 in the test on COLO 205 was 16.4 µM (inactive); in the test with RXF 393, 8.55 µM (inactive); in the test on SK-OV-3 it was 21.6 µM (inactive); with HT-29 it was 8.41 µM (inactive); in the test on A498, 23.7 µM (inactive); in the test with 786-0 it was 17.2 µM (inactive). In addition, the GI50 is 18.5 µM (inactive) in the test with SF-268; 58.6 µM (inactive) in the test on TK-10; 18 µM (inactive) with T47D; 3.39 µM (inactive) in the test with SR; 9.84 µM (inactive) in the test on HCT-116; 47.6 µM (inactive) in the test with OVCAR-4. Further, the GI50 with UACC-62 is 16.7 µM (inactive); in the test with SK-MEL-2, 30.5 µM (inactive); with HCT-15 it was 5.58 µM; with BT-549, > 49.4 µM (inactive); in the test on MDA-MB-435, 2.94 µM (inactive); in the test on MDA-MB-231, 23 µM (inactive). The GI50 with SK-MEL-28 was 18.6 µM (inactive); with SF-295 it was 9.08 µM (inactive).

As to `N#Cc1ccc(CSC2=C(c3ccc(Cl)cc3)S/C(=C3\SC(SCc4ccc(C#N)cc4)=C(c4ccc(Cl)cc4)S3)S2)cc1`, the GI50 in the test with COLO 205, with RXF 393, with SK-OV-3, with HT-29, with A498 and in the test on 786-0 was > 100 µM (inactive) throughout. For the same molecule, the GI50 in the test on SF-268, with TK-10, in the test with T47D, with SR, with HCT-116 and in the test on OVCAR-4 was > 100 µM (inactive) in each case. Further, the GI50 in the test on UACC-62 was > 100 µM (inactive); in the test on SK-MEL-2, > 100 µM (inactive); in the test on HCT-15 it was > 100 µM; in the test with BT-549 it was > 100 µM (inactive); with MDA-MB-435, > 100 µM (inactive); in the test on MDA-MB-231 it was > 100 µM (inactive). Also, the GI50 in the test on SK-MEL-28 and in the test with SF-295 was > 100 µM (inactive) in each case.

On to `CCCCCCCCCCCCOC1C(COCCN2CCCC2)OC2OC(C)(C)OC21` (stereo not given), for which the GI50 is 1.82 µM (inactive) with COLO 205; 1.57 µM (inactive) with RXF 393; 1.63 µM (inactive) in the test on SK-OV-3; 1.55 µM (inactive) in the test with HT-29; 14 µM (inactive) with A498; 1.68 µM (inactive) in the test on 786-0. For the same molecule, the GI50 in the test on SF-268 is 2 µM (inactive); in the test on TK-10, 1.66 µM (inactive); in the test with T47D, 2.07 µM (inactive); in the test with SR, 1.14 µM (inactive); with HCT-116 it was 1.75 µM (inactive); in the test on OVCAR-4 it was 2.03 µM (inactive). Further, the GI50 in the test with UACC-62 was 1.91 µM (inactive); in the test with SK-MEL-2 it was 1.71 µM (inactive); with HCT-15, 1.76 µM; in the test with BT-549 it was 1.66 µM (inactive); in the test on MDA-MB-435 it was 1.76 µM (inactive); in the test with MDA-MB-231, 1.5 µM (inactive). For the same molecule, the GI50 is 1.72 µM (inactive) in the test with SK-MEL-28 and 1.86 µM (inactive) with SF-295.

For the molecule `C/C(=C\[C@H]1C[C@@H]([C@@H]2CC[C@]34C[C@]23C=C[C@@H]2[C@@]3(C)CC=C5C[C@@H](c6ccccc6)OC[C@]5(C)[C@@H]3C[C@@H](O)[C@]24C)C(=O)O1)CO` [DICHAPETALIN A], the GI50 in the test on COLO 205 was 2.01 µM (inactive); in the test with RXF 393, 77.8 µM (inactive); with SK-OV-3, > 36.8 µM (inactive); in the test with HT-29 it was 2.01 µM (inactive); in the test on A498, 0.437 µM (active); in the test on 786-0 it was 4.38 µM (inactive). Also, the GI50 in the test on SF-268 is 6.75 µM (inactive); in the test with TK-10, 2.84 µM (inactive); in the test on T47D it was 2.84 µM (inactive); with SR it was < 0.01 µM (active); in the test with HCT-116, 1.14 µM (inactive); with OVCAR-4, 3.03 µM (inactive). Moreover, the GI50 in the test on UACC-62 is 9.02 µM (inactive); in the test on SK-MEL-2, 31.4 µM (inactive); in the test on HCT-15, 4.38 µM; with BT-549, 3.78 µM (inactive); in the test on MDA-MB-435, 2.48 µM (inactive); in the test on MDA-MB-231, 5.35 µM (inactive). Moreover, the GI50 in the test with SK-MEL-28 was 3.74 µM (inactive); with SF-295, 1.34 µM (inactive).
